One experiment concerns WI-38. Nature of the experiment: Cytotoxicity activity against human WI38 cells measured after 48 hrs by MTT assay. Format: cell-based. As to conditions: WI-38, 48 h. A general note: Tetrazolium assays rely on reduction of a dye to a coloured formazan, in cell work by metabolically active cells.
For a further experiment, the system named is PC-3. The experiment in a line: Antiproliferative activity against human PC3 cells measured after 48 hrs by MTT assay. Format: functional, cell-based. As to conditions: PC-3, 48 h.
A further experiment has as its system HepG2. The experiment in a line: Antiproliferative activity against human HepG2 cells measured after 48 hrs by MTT assay. Format: functional, cell-based. As to conditions: HepG2, 48 h.
The next experiment has as its system A549. Nature of the experiment: Antiproliferative activity against human A549 cells measured after 48 hrs by MTT assay. Format: functional, cell-based. Conditions: A549, 48 h.

The IC50 is the concentration needed to halve the response being measured. Read a high IC50 as lower potency.

Consider `CO[C@H]1C[C@H](O[C@H]2CC[C@@]3(C)C(=CC[C@@H]4[C@@H]3CC[C@]35C(=O)O[C@H](C)[C@H]3CC[C@]45O)C2)O[C@H](C)[C@H]1O[C@@H]1C[C@H](OC)[C@H](O[C@@H]2C[C@@H](OC)[C@H](O)[C@@H](C)O2)[C@@H](C)O1`, for which the IC50 in the experiment on WI-38, with PC-3, in the experiment on HepG2 and with A549 was above 50 µM in each case.
As to `CO[C@H]1C[C@H](O[C@H]2CC[C@@]3(C)[C@@H](CC[C@H]4C5=CC(=O)[C@@H]6[C@@H](C)OC(=O)[C@]56CC[C@@H]43)C2)O[C@H](C)[C@H]1O[C@H]1C[C@@H](OC)[C@H](O)[C@@H](C)O1`, the IC50 with WI-38, in the experiment with PC-3, in the experiment with HepG2 and in the experiment on A549 was above 50 µM throughout.
For `C[C@H]1OC(=O)[C@]23CC[C@H]4[C@@H](C(C=O)=C5C[C@@H](O)CC[C@@]54C)[C@@]2(O)CC[C@H]13`, the IC50 in the experiment on WI-38, in the experiment on PC-3, with HepG2 and in the experiment on A549 was above 50 µM throughout.
In the case of `CO[C@H]1C[C@H](O[C@H]2CC[C@@]3(C)C(=C(C=O)[C@@H]4[C@@H]3CC[C@]35C(=O)O[C@H](C)[C@H]3CC[C@]45O)C2)O[C@H](C)[C@H]1O`, the IC50 in the experiment with WI-38, with PC-3, in the experiment on HepG2 and with A549 was above 50 µM throughout.
Turning to `CO[C@H]1C[C@@H](O[C@H]2[C@@H](O)C[C@H](O[C@H]3CC[C@@]4(C)[C@@H](CC[C@H]5C6=CC(=O)[C@@H]7[C@@H](C)OC(=O)[C@]67CC[C@@H]54)C3)O[C@@H]2C)O[C@H](C)[C@H]1O`, the IC50 with WI-38, in the experiment with PC-3, in the experiment on HepG2 and in the experiment with A549 was above 50 µM throughout.
Regarding `C[C@H]1O[C@@H](O[C@H]2CC[C@@]3(C)[C@@H](CC[C@H]4C5=CC(=O)[C@@H]6[C@@H](C)OC(=O)[C@]56CC[C@@H]43)C2)C[C@H](O)[C@@H]1O`, the IC50 in the experiment on WI-38, with PC-3, in the experiment with HepG2 and in the experiment with A549 was above 50 µM each time.
As for `CO[C@H]1C[C@H](O[C@H]2CC[C@@]3(C)C(=CC[C@H]4C5=CC(=O)[C@@H]6[C@@H](C)OC(=O)[C@]56CC[C@@H]43)C2)O[C@H](C)[C@H]1O[C@@H]1C[C@@H](OC)[C@H](O)[C@@H](C)O1`, the IC50 in the experiment on WI-38 was determined as 5.5 µM; in the experiment with PC-3 it was 3.6 µM; in the experiment with HepG2, 2 µM; in the experiment on A549 it was 2.4 µM.
For `C[C@H]1O[C@@H](O[C@H]2CC[C@@]3(C)C(=CC[C@H]4C5=CC(=O)[C@@H]6[C@@H](C)OC(=O)[C@]56CC[C@@H]43)C2)C[C@H](O)[C@@H]1O`, in that order: above 50 µM, above 50 µM, above 50 µM and above 50 µM.
In the case of `C[C@H]1OC(=O)[C@]23CC[C@H]4[C@@H](CC[C@H]5C[C@@H](O)CC[C@@]54C)[C@@]2(O)CC[C@H]13`, the IC50 in the experiment with WI-38, in the experiment with PC-3, in the experiment on HepG2 and in the experiment with A549 was above 50 µM in each case.
In the case of `CO[C@H]1C[C@@H](O[C@H]2[C@@H](O)C[C@H](O[C@H]3CC[C@@]4(C)C(=CC[C@@H]5[C@@H]4CC[C@]46C(=O)O[C@H](C)[C@H]4CC[C@]56O)C3)O[C@@H]2C)O[C@H](C)[C@H]1O`, the IC50 in the experiment on WI-38, in the experiment with PC-3, with HepG2 and with A549 was above 50 µM throughout.
As for `CO[C@H]1C[C@@H](O[C@@H]2[C@H](O)C[C@H](O[C@H]3CC[C@@]4(C)C(=CC[C@H]5C6=CC(=O)[C@@H]7[C@@H](C)OC(=O)[C@]67CC[C@@H]54)C3)O[C@@H]2C)O[C@H](C)[C@H]1O`, the half-maximal inhibitory concentration (IC50) in the experiment on WI-38, in the experiment with PC-3, in the experiment with HepG2 and in the experiment with A549 was above 50 µM each time.
For the compound `CO[C@H]1C[C@@H](O[C@H]2[C@@H](OC)C[C@H](O[C@H]3CC[C@@]4(C)C(=CC[C@@H]5[C@@H]4CC[C@]46C(=O)O[C@H](C)[C@H]4CC[C@]56O)C3)O[C@@H]2C)O[C@H](C)[C@H]1O`, the IC50 with WI-38, in the experiment on PC-3, with HepG2 and in the experiment on A549 was above 50 µM each time.
As for `CO[C@H]1C[C@H](O[C@H]2CC[C@@]3(C)[C@@H](CC[C@H]4C5=CC(=O)[C@@H]6[C@@H](C)OC(=O)[C@]56CC[C@@H]43)C2)O[C@H](C)[C@H]1O`, the IC50 in the experiment on WI-38, with PC-3, in the experiment on HepG2 and in the experiment with A549 was above 50 µM throughout.
With `COc1cccc2c1C(=O)c1c(O)c3c(c(O)c1C2=O)C[C@@](O)(C(=O)CO)C[C@@H]3O[C@H]1C[C@H](N)[C@H](O)[C@H](C)O1` [DOXORUBICIN], the IC50 in the experiment on PC-3, with HepG2 and in the experiment on A549 was 0.5 to 0.8 µM each time.
For `C[C@H]1OC(=O)[C@]23CC[C@@H]4[C@@]5(C)CC[C@H](O)CC5=CC[C@@]4(O)[C@@]2(O)CC[C@H]13`, the IC50 with WI-38, in the experiment with PC-3, in the experiment on HepG2 and in the experiment with A549 was above 50 µM each time.
